“Also recorded” adds a separate entry of the source.
Legend:
C57Bl mice = assay: Toxicity of serine conjugates in mice in the absence of irradiation; assay type: in vivo, mouse; settings: injections of up to 40 mg/kg body weight, up to 14 days, no irradiation
Procedure: (d) Toxicity of the Chl and Bchl-serine conjugates Chla-L-Ser-OMe and Bchla-L-Ser-OMe in C57Bl mice under normal housing conditions in the absence of irradiation was estimated by injection of the compound dissolved in 10% ethanol/PBS. Control mice were injected with the vehicle only. […] This dose of drug was thus far the highest used and LD50 vs. EC50 of treatment (margins of therapeutic index) have yet to be determined.

M2R mouse melanoma cells = assay: Photodynamic toxicity to melanoma cell monolayer: morphology and Propidium Iodide staining; assay type: cell-based; settings: 4×10^−6M pigment, 10 min irradiation at 670 nm (light source A), examined 3 h later
Procedure: The photodynamic effect of Chlidea and Chla-L-Ser-OMe conjugate on melanoma cells in culture was tested as follows: M2R mouse melanoma cells as monolayers (to 100% confluence) were treated with the pigments Chla, Chlidea and Chla-L-Ser-OMe for 30 minutes. Subsequently the cultures were irradiated for 10 minutes from the top with a 5mW GaAs diode laser at 670 nm (light source A), a 150W Xenon lamp at 5000 μEinstein/cm^2 (light source B), or a 90W halogen lamp at 1500 μEinstein (light source C). The control groups included untreated cells, pigment- treated cells that were kept in the dark and irradiated untreated cells. Three hours after irradiation, the changes in cell morphology due to irradiation were examined by phase contrast microscopy.
Evaluation of the cytolytic activity of the various Chl and Bchl derivatives was carried out by assessing cell death in the photodynamically treated area of the monolayer by staining of the cells with, and monitoring the red fluorescence of, Propidium Iodide ([2,7-diamino-9-phenyl-10-(diethylamino-propyl)-phenathridinium iodide meth-iodide]) (PID) which is excluded from intact/live cells and selectively accumulates in nuclei of damaged cells. Examination of fluorescing nuclei in the stained culture was done by fluorescence microscopy (Yeh, 1981). […]

M2R melanoma cells = assay: PDT effect by clonogenic assay; assay type: cell-based, mouse
Procedure: The PDT effect was also determined by the clonogenic assay: 24 h after treatment of cells with various Chla-L-Ser-OMe concentrations and completion of the irradiation step, as described above (FIG. 12A), cultures were trypsinized and viable cell numbers determined by trypan blue exclusion. Appropriate dilutions were carried out and 250 cells/well were seeded into 6-well Costar plates. After 11-12 days in culture, the medium was aspirated and the colonies were fixed and stained with crystal violet in methanol and the number of colonies (more than 40 cells per colony) was counted under a dissecting microscope. […] Results are given as means±SD of triplicate determinations.

Q: Which “effect on behavior and well being of mice” value (C57Bl mice) does the source give for `C=Cc1c(C)c2cc3nc(c4c5[n-]c(cc6nc(cc1[n-]2)C(C)=C6CC)c(C)c5C(=O)[C@@H]4C(=O)OC)[C@@H](CCC(=O)OC[C@H](N)C(=O)OC)[C@@H]3C.[Mg+2]` [Chla-L-Ser-OMe, L-seryl Methyl Ester Chlorophyllidea] here?
A: no noticeable effect on the behavior and well being of the mice

Q: What about the “cell damage: morphology and PID labeling after irradiation” value (M2R mouse melanoma cells) of the same molecule?
A: cell damage was confined to the photodynamically treated area; also recorded: all the remaining damaged cells in area (A) became PID labeled

Q: What about the “number of surviving cells (colonies) without irradiation” value (M2R melanoma cells; dark) of the same molecule?
A: not in the dark

Q: And the “number of surviving cells (colonies) after PDT” value (M2R melanoma cells; irradiated, colonies counted after 11-12 days)?
A: reduced the number of surviving cells in a dose dependent manner

— US6740637B1, “Chlorophyll and bacteriochlorophyll derivatives, their preparation and pharmaceutical compositions comprising them” (priority 1998, dated 2004)
